Laboratory results as given in the supplement of paper PMC13380429.

Key:
HepG2 [1] = test: cell viability relative to DMSO; higher = less toxic; conditions: 72 h
Vero E6 [2] = test: as above; conditions: 72 h
U2OS [3] = test: as above; conditions: 72 h
Calu-3 [4] = test: as above; conditions: 72 h
Caco-2 [5] = test: as above; conditions: 72 h
[6] = tested on: A549-ACE2 infected with SARS-CoV-2; test: cell count relative to DMSO; higher = less toxic; conditions: 24 h
A549-ACE2 = test: drug-induced phospholipidosis relative to tamoxifen; higher = more phospholipidosis
[7] = tested on: A549-ACE2 infected with SARS-CoV-2; test: SARS-CoV-2 infection rate relative to DMSO; higher = more infection; conditions: 24 h
[8] = tested on: A549-ACE2 infected with SARS-CoV-2; test: morphology score (similarity to uninfected cells); higher = more like uninfected cells; conditions: 24 h
Vero E6 [9] = test: relative viability EC50 (midpoint between 100% and the lowest measured viability); higher = less toxic; conditions: 72 h
U2OS [10] = test: as above; conditions: 72 h
Calu-3 [11] = test: as above; conditions: 72 h
Caco-2 [12] = test: as above; conditions: 72 h
HepG2 [13] = test: drug sensitivity score (DSS) for viability; higher = more toxic; extreme values may be limits of the assay; conditions: 72 h
Vero E6 [14] = test: as above; conditions: 72 h
U2OS [15] = test: as above; conditions: 72 h
Calu-3 [16] = test: as above; conditions: 72 h
Caco-2 [17] = test: as above; conditions: 72 h
HepG2 [18] = test: relative viability EC50 (midpoint between 100% and the lowest measured viability); higher = less toxic; conditions: 72 h

COc1cc2c(NC3CCN(C4CCCCC4)CC3)nc(N3CCCN(C(C)C)CC3)nc2cc1OCCCN1CCCCC1 [UNC0646]
cell viability (HepG2 [1]; 1 nM): 88.2% | cell viability (HepG2 [1]; 10 nM): 96.7% | cell viability (HepG2 [1]; 100 nM): 90.9% | cell viability (HepG2 [1]; 1000 nM): 102% | cell viability (HepG2 [1]; 10000 nM): 65.3% | cell viability (Vero E6 [2]; 1 nM): 92.2% | cell viability (Vero E6 [2]; 10 nM): 97.6% | cell viability (Vero E6 [2]; 100 nM): 94.3% | cell viability (Vero E6 [2]; 1000 nM): 92% | cell viability (Vero E6 [2]; 10000 nM): 100% | cell viability (U2OS [3]; 1 nM): 103% | cell viability (U2OS [3]; 10 nM): 102% | cell viability (U2OS [3]; 100 nM): 107% | cell viability (U2OS [3]; 1000 nM): 97% | cell viability (U2OS [3]; 10000 nM): 94.7% | cell viability (Calu-3 [4]; 1 nM): 96.5% | cell viability (Calu-3 [4]; 10 nM): 92.3% | cell viability (Calu-3 [4]; 100 nM): 93.6% | cell viability (Calu-3 [4]; 1000 nM): 90.4% | cell viability (Calu-3 [4]; 10000 nM): 83.9% | cell viability (Caco-2 [5]; 1 nM): 96% | cell viability (Caco-2 [5]; 10 nM): 97.6% | cell viability (Caco-2 [5]; 100 nM): 100% | cell viability (Caco-2 [5]; 1000 nM): 97.6% | cell viability (Caco-2 [5]; 10000 nM): 93.9% | cell count ([6]; 0.3 µM): 106% | cell count ([6]; 3 µM): 110% | cell count ([6]; 10 µM): 112% | cell count ([6]; 30 µM): 25% | drug-induced phospholipidosis (A549-ACE2; 0.3 µM, 24 h): -0.25% | drug-induced phospholipidosis (A549-ACE2; 0.3 µM, 48 h): 1.05% | drug-induced phospholipidosis (A549-ACE2; 0.3 µM, 72 h): 0.206% | drug-induced phospholipidosis (A549-ACE2; 0.833333 µM, 24 h): 5.64% | drug-induced phospholipidosis (A549-ACE2; 0.833333 µM, 48 h): 5.57% | drug-induced phospholipidosis (A549-ACE2; 0.833333 µM, 72 h): 4.62% | drug-induced phospholipidosis (A549-ACE2; 3.33333 µM, 24 h): 3.14% | drug-induced phospholipidosis (A549-ACE2; 3.33333 µM, 48 h): 5.07% | drug-induced phospholipidosis (A549-ACE2; 3.33333 µM, 72 h): 7.33% | drug-induced phospholipidosis (A549-ACE2; 6.66667 µM, 24 h): 8.62% | drug-induced phospholipidosis (A549-ACE2; 6.66667 µM, 48 h): 9.69% | drug-induced phospholipidosis (A549-ACE2; 6.66667 µM, 72 h): 11.5% | drug-induced phospholipidosis (A549-ACE2; 10 µM, 24 h): 22% | drug-induced phospholipidosis (A549-ACE2; 10 µM, 48 h): 24.5% | drug-induced phospholipidosis (A549-ACE2; 10 µM, 72 h): 28% | drug-induced phospholipidosis (A549-ACE2; 30 µM, 24 h): 44.4% | drug-induced phospholipidosis (A549-ACE2; 30 µM, 48 h): 45.2% | SARS-CoV-2 infection rate ([7]; 0.3 µM): 92% | SARS-CoV-2 infection rate ([7]; 3 µM): 68% | SARS-CoV-2 infection rate ([7]; 10 µM): 26% | SARS-CoV-2 infection rate ([7]; 30 µM): 47% | morphology score ([8]; 0.3 µM): 0.28 | morphology score ([8]; 3 µM): 0.67 | morphology score ([8]; 10 µM): 0.92 | morphology score ([8]; 30 µM): -0.11 | relative viability EC50 (Vero E6 [9]): > 10 µM | relative viability EC50 (U2OS [10]): > 10 µM | relative viability EC50 (Calu-3 [11]): > 10 µM | relative viability EC50 (Caco-2 [12]): > 10 µM | drug sensitivity score (HepG2 [13]): 1.5 | drug sensitivity score (Vero E6 [14]): 0 | drug sensitivity score (U2OS [15]): 0 | drug sensitivity score (Calu-3 [16]): 0.6 | drug sensitivity score (Caco-2 [17]): 0

CCCC[C@@H](C=O)NC(=O)[C@H](CC(C)C)NC(=O)OCc1ccccc1 [calpeptin]
cell viability (HepG2 [1]; 1 nM): 99.8% | cell viability (HepG2 [1]; 10 nM): 95.1% | cell viability (HepG2 [1]; 100 nM): 98.2% | cell viability (HepG2 [1]; 1000 nM): 98.3% | cell viability (HepG2 [1]; 10000 nM): 92.2% | cell viability (Vero E6 [2]; 1 nM): 97.5% | cell viability (Vero E6 [2]; 10 nM): 99.6% | cell viability (Vero E6 [2]; 100 nM): 102% | cell viability (Vero E6 [2]; 1000 nM): 98% | cell viability (Vero E6 [2]; 10000 nM): 92.1% | cell viability (U2OS [3]; 1 nM): 104% | cell viability (U2OS [3]; 10 nM): 98.8% | cell viability (U2OS [3]; 100 nM): 103% | cell viability (U2OS [3]; 1000 nM): 95.8% | cell viability (U2OS [3]; 10000 nM): 96.4% | cell viability (Caco-2 [5]; 1 nM): 96.8% | cell viability (Caco-2 [5]; 10 nM): 97% | cell viability (Caco-2 [5]; 100 nM): 100% | cell viability (Caco-2 [5]; 1000 nM): 94.5% | cell viability (Caco-2 [5]; 10000 nM): 97.7% | cell count ([6]; 0.3 µM): 114% | cell count ([6]; 3 µM): 120% | cell count ([6]; 10 µM): 123% | cell count ([6]; 30 µM): 118% | drug-induced phospholipidosis (A549-ACE2; 0.3 µM, 24 h): 5.73% | drug-induced phospholipidosis (A549-ACE2; 0.3 µM, 48 h): 3.11% | drug-induced phospholipidosis (A549-ACE2; 0.3 µM, 72 h): 4.92% | drug-induced phospholipidosis (A549-ACE2; 0.833333 µM, 24 h): 6.24% | drug-induced phospholipidosis (A549-ACE2; 0.833333 µM, 48 h): 2.48% | drug-induced phospholipidosis (A549-ACE2; 0.833333 µM, 72 h): 2.16% | drug-induced phospholipidosis (A549-ACE2; 3.33333 µM, 24 h): 10.6% | drug-induced phospholipidosis (A549-ACE2; 3.33333 µM, 48 h): 7.49% | drug-induced phospholipidosis (A549-ACE2; 3.33333 µM, 72 h): 4.48% | drug-induced phospholipidosis (A549-ACE2; 6.66667 µM, 24 h): 21.3% | drug-induced phospholipidosis (A549-ACE2; 6.66667 µM, 48 h): 16.9% | drug-induced phospholipidosis (A549-ACE2; 6.66667 µM, 72 h): 13.5% | drug-induced phospholipidosis (A549-ACE2; 10 µM, 24 h): 26.2% | drug-induced phospholipidosis (A549-ACE2; 10 µM, 48 h): 26.6% | drug-induced phospholipidosis (A549-ACE2; 10 µM, 72 h): 24.6% | drug-induced phospholipidosis (A549-ACE2; 30 µM, 24 h): 64.5% | drug-induced phospholipidosis (A549-ACE2; 30 µM, 48 h): 77.2% | drug-induced phospholipidosis (A549-ACE2; 30 µM, 72 h): 87.8% | SARS-CoV-2 infection rate ([7]; 0.3 µM): 56% | SARS-CoV-2 infection rate ([7]; 3 µM): 29% | SARS-CoV-2 infection rate ([7]; 10 µM): 13% | SARS-CoV-2 infection rate ([7]; 30 µM): 8% | morphology score ([8]; 0.3 µM): 0.69 | morphology score ([8]; 3 µM): 0.91 | morphology score ([8]; 10 µM): 0.9 | morphology score ([8]; 30 µM): 0.77 | relative viability EC50 (HepG2 [18]): > 10 µM | relative viability EC50 (Vero E6 [9]): > 10 µM | relative viability EC50 (U2OS [10]): > 10 µM | relative viability EC50 (Caco-2 [12]): > 10 µM | drug sensitivity score (HepG2 [13]): 0 | drug sensitivity score (Vero E6 [14]): 0 | drug sensitivity score (U2OS [15]): 0 | drug sensitivity score (Caco-2 [17]): 0
